Test results reported in a melting point compilation (Tetko et al.).

melting point [°C] | SMILES
94 to 96 | Cc1ccc(S(=O)(=O)NCCN)s1
208 to 210 | Cc1nc(NC2CC2)sc1C(=O)O
309 to 311 | O=c1[nH]cnc2cnc(Cl)cc12
249 to 251 | Cc1cc(C(=O)O)nn1-c1cccc(C#N)c1
169 to 171 | O=C(O)c1nnn(-c2ccc(Br)cc2)c1C(F)(F)F
166 to 168 | Nc1[nH]ncc1-c1ccc2c(c1)OCO2
175 to 177 | Cc1sc(N)nc1-c1cccc([N+](=O)[O-])c1
209 to 211 | O=C(O)CCc1nc2cccc(Cl)c2[nH]1
256 to 258 | Cc1cc(-c2cc(C(=O)O)c3c(C)noc3n2)c(C)s1
111 to 113 | O=C(O)CC=Cc1ccc(F)cc1
201 to 203 | COc1ccc(-c2ccc(C(=O)O)c(F)c2)cc1
89 to 91 | Cc1c(Br)cccc1CO
209 to 211 | NS(=O)(=O)CCN1C(=O)c2ccccc2C1=O
211 to 213 | O=C(O)c1cc(C2CC2)nc2ccc(Cl)cc12
159 to 161 | Cc1ccc(CC(=O)O)cn1
223 to 225 | CNc1ccnc2ccncc12
190 to 193 | O=C(NC1CC1)c1cc(Cl)nc2ccccc12
78 to 80 | Sc1nnnn1Cc1ccco1
103 to 105 | O=C(O)CCCSc1nc2ccccc2s1
61 to 63 | CN1Cc2ccc(N)cc2C1
102 to 104 | COc1cncc(CCC(=O)O)c1
179 to 181 | COc1ccc2[nH]cc(C(=O)O)c2c1
250 to 252 | CCC1Nc2ccc(C(=O)O)cc2NC1=O (stereo not drawn)
209 to 211 | O=C(O)c1coc(-c2ccccc2)n1
199 to 201 | Cc1nc(O)ccc1Br
139 to 141 | O=Cc1cn(-c2cccc(Cl)c2Cl)nn1
105 to 107 | CCOC(=O)c1c(N)sc2ccccc12
364 to 366 | O=c1[nH]c(S)nc2ccsc12
224 to 226 | Cc1cc(C)nc(NCc2cccc(C(=O)O)c2)n1
164 to 166 | Cn1c(Cl)c(C=O)c2cc(C=O)ccc21

Further lines, the compound ahead of its results:

SMILES | melting point [°C]
CCSc1ccc(C(=O)O)cc1 | 145 to 147
Cc1nccn1-c1cc(C#N)ccn1 | 194 to 196
Nc1cc(Cl)ccc1C(=O)N1CCCC1 | 118 to 120
CC(NC(=O)CC1CCCC1)C(=O)O (stereo not drawn) | 139 to 141
Cc1cccc(C(CO)N2CCNCC2)c1 (stereo not drawn) | 81 to 83
O=C(O)CN1CCCS1(=O)=O | 83 to 85
O=C1CCCS(=O)(=O)C1 | 141 to 143
Cc1ccc(NC(=O)C(Cl)c2ccccc2)cc1 (stereo not drawn) | 143 to 147
OCCOc1ccc(O)cc1 | 86 to 88
COCCNC(=O)Nc1ccc(N)cc1 | 135 to 137
CN(C)CCN1C(=O)C=CC1=O | 44 to 46
COc1cc(C)c(S(=O)(=O)Cl)cc1OC | 73 to 75
O=C(O)CCNC(=O)c1ccco1 | 135 to 139
O=C(O)CNC(=O)NCc1ccc([N+](=O)[O-])cc1 | 166 to 168
COc1ccccc1C(N)=NO | 105 to 107
NCCc1ccc(OCC(N)=O)cc1 | 96 to 98
NCC(O)c1ccccc1C(F)(F)F (stereo not drawn) | 106 to 108
NS(=O)(=O)c1ccc(CC(=O)O)cc1 | 169 to 171
CC(C)(C)CC(=O)NN | 51 to 53
Cc1c(NC(=O)C(C)Cl)cccc1[N+](=O)[O-] (stereo not drawn) | 120 to 122
CCOC(=O)COc1ccc(C(C)=O)cc1 | 52 to 54
O=C(O)c1cc(S(=O)(=O)Nc2ccc(Br)cc2)ccc1Cl | 217 to 219
Cc1nn(C(C)(C)C)c(C)c1S(=O)(=O)Cl | 68 to 70
NNC(=S)NCCc1ccccn1 | 124 to 126
O=C(O)c1ccc(NS(=O)(=O)C=Cc2ccccc2)cc1 | 254 to 256
Cc1cc(NC(=O)C(Br)C(C)C)no1 (stereo not drawn) | 96 to 98
Cc1ccn(-c2ccc(Cl)nn2)n1 | 169 to 171
Cc1[nH]nc(C(=O)O)c1S(=O)(=O)Cl | 150 to 152
